Consider three compounds from article PMC6828666, “Discovery of holoenzyme-disrupting chemicals as substrate-selective CK2 inhibitors” (Scientific Reports, 2019).

Each structure is given as a SMILES string.

For experiment [1], the target named is T1, CHK2 (Homo sapiens, UniProt O96017).
T1 construct: purchased Millipore (Upstate Kinase Profiler Panel Service)
Kind of experiment: Kinase selectivity profiling (Millipore Kinase profiler). The following applies: 100 μM compound; 10 μM ATP. It is filed as biochemical. On the procedure:
(§1) Kinase selectivity of compound 1 was assessed using a panel of 45 recombinant protein kinases. The assays were performed at 10 μM ATP in the presence of 100 μM inhibitor using the Kinase profiler panel service (Millipore). Inhibition, expressed as the percent of activity determined in the absence of inhibitor, was calculated from the residual activity measured in the presence of 100 μM inhibitor.
(§2) Fig. S4. Kinase selectivity profile of compound 1 on a panel of 45 different protein kinases. The assays were performed at 10 μM ATP in the presence of 100 μM compound 1 using the Upstate Kinase Profiler Panel Service (Millipore). Residual activity in presence of 100 μM compound 1 are depicted in (a) and a graphical representation of the inhibition percentage in the presence of 100 μM compound 1 is shown in (b).

Experiment [2] deals with T2, CK2α (Homo sapiens, UniProt P68400). The description is as above. The experiment is classed as biochemical. The following applies: 100 μM compound; 10 μM ATP. On the procedure:
as §1, §2

In experiment [3] the target is T3, CK2α2β2 (Homo sapiens, UniProt P68400).
T3 construct: purchased Millipore (Upstate Kinase Profiler Panel Service)
T3 sequence (P68400 whole entry): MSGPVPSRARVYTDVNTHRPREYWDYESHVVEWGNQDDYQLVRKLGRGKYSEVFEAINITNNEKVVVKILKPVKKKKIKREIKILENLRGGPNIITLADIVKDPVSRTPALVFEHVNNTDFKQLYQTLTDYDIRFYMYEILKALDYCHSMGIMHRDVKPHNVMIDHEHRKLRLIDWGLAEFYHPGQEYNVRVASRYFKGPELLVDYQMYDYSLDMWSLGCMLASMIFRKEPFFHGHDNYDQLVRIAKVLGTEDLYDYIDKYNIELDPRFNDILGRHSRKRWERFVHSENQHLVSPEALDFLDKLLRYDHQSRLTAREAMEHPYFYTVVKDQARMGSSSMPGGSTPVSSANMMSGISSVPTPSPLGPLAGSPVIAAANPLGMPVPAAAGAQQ
The experiment is described as above. It is filed as biochemical. The following applies: 100 μM compound; 10 μM ATP. As to the method: as §1, §2

Experiment [4] addresses T4, Pim-1 (Homo sapiens, UniProt P11309).
T4 construct: purchased Millipore (Upstate Kinase Profiler Panel Service)
The experiment is described as above. The experiment is classed as biochemical. The following applies: 100 μM compound; 10 μM ATP. On the procedure:
as §1, §2

Experiment [5] has as its target T2, CK2α. Kind of experiment: Steady state kinetic analysis of CK2 inhibition (Lineweaver-Burk). On the set-up: made in house; host or cells: Escherichia coli (CK2α). The following applies: for Ki: increasing ATP. The experiment is classed as biochemical. As to the method:
Steady state kinetic analysis of compound 1 complexation with CK2 was performed by incubation of CK2α with increasing concentrations of CK2β in the presence of different concentrations of the compound. ATP and eIF2-derived peptide were present at their saturating concentrations, 100 μM and 600 μM, respectively (Fig. 3e).
In the presence of 100 μM of compound 1, adding increasing concentrations of CK2β-dependent peptide at a saturating concentration of ATP (100 μM) had no effect on the extent of inhibition (Fig. 2d) showing that the inhibition is also not competitive with the peptide substrate. Using steady-state kinetic analysis, we examined the effects of increasing ATP concentrations on the inhibition of phosphorylation by compound 1. In the presence of a saturating concentration of the CK2β-dependent peptide substrate (133 μM), increasing ATP concentrations reduced the level of inhibition but could not restore either the maximal velocity of the enzyme, Vmax, or the Michaelis constant, km, for ATP.
For Olig2 phosphorylation assay, GST-Olig2 fusion protein (3.7 μg) was incubated with 200 nM CK2α, in the absence or presence of 50 μM compound 1 and increasing concentrations of CK2β. Samples were analyzed by SDS PAGE and subjected to autoradiography. Phosphoproteins were quantified by densitometry scanning. For eIF2 peptide phosphorylation assay, the CK2β-dependent peptide substrate (600 μM) was incubated with CK2α (40–50 nM) and increasing concentrations of compound 1 or/and CK2β.
Fig. S2. Ki and Ki’ value determination from enzymatic kinetic characterization of CK2 inhibition by compound 1. (a) Ki value has been calculated from linear regression analysis of the slopes (α/Vmax) of the Lineweaver-Burk double reciprocal plots of Fig 2f. (b) Ki’ value has been calculated from linear regression analysis of the y-intercept (α’/Vmax) of Lineweaver-Burk double reciprocal plots of Fig 2f.

The target in experiment [6] is T2, CK2α. Kind of experiment: STD-NMR competition with AMPPNP. The experiment is classed as binding. On the procedure:
Standard 1D, STD, and WaterLOGSY NMR spectra were acquired at 20 °C with a Bruker 600 MHz NMR spectrometer, equipped with a Z-gradient cryoprobe. WaterLOGSY mixing time was 1.5 s. Both STD and WaterLOGSY spectra were recorded for each sample. WaterLOGSY spectra in the absence of protein receptor were recorded with 300 µM compound to assess the compound solubility. All the NMR experiments were performed at 293 K with excitation sculpting to suppress peaks from water. 1D and STD experiments were performed using identical experimental conditions (spin lock, interscan delays), and parameters for the STD experiments (saturation frequency and saturation time) were identical for all samples. […] NMR tubes contained 2 μM CK2 with 300 μM of 4.
Fig. S8. NMR-based investigation of the binding of compound 4 to CK2α. (a) NMR-STD epitope mapping observed for compound 4. […] Both compounds bind simultaneously to CK2α.

Experiment [7] concerns the target T5, CK2 subunit association in MCF10A cells (Homo sapiens, UniProt P68400).
T5 construct: endogenous in cells; host or cells: MCF10A
Kind of experiment: Anti-CK2β immunoprecipitation from treated MCF10A cells. The experiment is classed as cell-based. The following applies: 75 μM, 4 h; CK2β-dependent and CK2β-independent substrate; vs DMSO. On the procedure: The transient nature of the CK2 holoenzyme has been highlighted by the elucidation of its structure. Furthermore, analysis of the spatiotemporal organization of individual CK2 subunits in living cells has shown that they are highly dynamic[10],[12]. Thus, we evaluated the effect of 6 on the CK2 subunit association in human mammary epithelial cells, using two independent strategies. First, CK2β was immunoprecipitated from extracts of MCF10A cells treated with DMSO as control or 75 μM of 6, and the amount of CK2α or CK2 catalytic activity recovered in the immunoprecipitates were analyzed by western blot and CK2 activity assay.
Anti-CK2β immunoprecipitates were prepared from MCF10A cells incubated with DMSO (0.5%) or 75 μM 6 for 4 h. The corresponding immunoprecipitates were analyzed for the presence of CK2 subunits by Western blot (a) and quantified in (b) or for CK2 activity with CK2β-independent and CK2β-dependent peptide substrate (c). […] (d) In situ proximity ligation images of MCF10A cells incubated with 50 μM 6 for 3 h. (e) Number of fluorescent dots per cell was quantified using the BlobFinder software. n = 120 cells from two independent experiments. Mann Whitney test was used and results were found significant (*p-value = 0.0003 and **p-value = 0.044). TEXT PRINTED IN THE PICTURE: (a) 6: Ratio CK2α/CK2β relative to control: 0.77 (75 μM)

T2 sequence (P68400 whole entry): as above
T4 sequence (P11309 whole entry): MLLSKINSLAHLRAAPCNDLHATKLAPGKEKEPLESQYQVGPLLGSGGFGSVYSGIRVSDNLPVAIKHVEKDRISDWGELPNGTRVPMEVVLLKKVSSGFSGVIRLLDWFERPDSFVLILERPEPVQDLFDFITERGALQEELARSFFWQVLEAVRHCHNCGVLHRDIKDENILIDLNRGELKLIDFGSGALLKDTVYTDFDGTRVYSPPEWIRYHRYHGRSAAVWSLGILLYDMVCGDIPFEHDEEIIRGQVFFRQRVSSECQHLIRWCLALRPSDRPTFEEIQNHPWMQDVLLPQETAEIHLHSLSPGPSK
T5 sequence (P68400 whole entry): as the sequence (P68400 whole entry) above
T1 sequence (O96017 whole entry): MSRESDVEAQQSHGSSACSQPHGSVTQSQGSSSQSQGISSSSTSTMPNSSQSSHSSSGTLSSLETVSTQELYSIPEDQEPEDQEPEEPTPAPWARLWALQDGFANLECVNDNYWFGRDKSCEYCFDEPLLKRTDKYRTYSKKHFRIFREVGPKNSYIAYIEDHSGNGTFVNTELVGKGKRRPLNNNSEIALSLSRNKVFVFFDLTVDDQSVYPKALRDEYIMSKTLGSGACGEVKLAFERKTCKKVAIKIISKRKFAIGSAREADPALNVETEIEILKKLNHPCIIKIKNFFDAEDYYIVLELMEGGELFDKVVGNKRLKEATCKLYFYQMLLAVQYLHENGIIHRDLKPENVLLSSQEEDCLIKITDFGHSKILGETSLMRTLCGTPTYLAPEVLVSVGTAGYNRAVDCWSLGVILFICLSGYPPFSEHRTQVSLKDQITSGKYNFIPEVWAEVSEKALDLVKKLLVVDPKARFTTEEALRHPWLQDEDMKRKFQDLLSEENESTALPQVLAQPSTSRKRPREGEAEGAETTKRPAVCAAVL

What is called inhibition is the relative decrease from the control value, in per cent. For orientation: Ki means a measure of affinity in units of concentration, obtained from inhibition or displacement. The low end stands for tighter binding, the high end for weaker binding. For the compound `COc1[nH]c2ccc(F)cc2c1C(=O)OCC1CCN(CCNS(C)(=O)=O)CC1` [Compound 1], the inhibition at 100 µM was 24% in experiment [1], 27% in experiment [2], 85% in experiment [3] and 36% in experiment [4]. Further, the inhibition constant Ki in experiment [5] (for CK2α, Lineweaver-Burk slopes) was 12 µM; in experiment [5] (for the CK2α-ATP complex, Lineweaver-Burk y-intercepts), 62 µM. Moreover, in experiment [5] (for the CK2α-ATP complex, increasing CK2β, ATP 100 μM, eIF2-derived peptide 600 μM), the “Ki' (mixed competitive inhibition towards CK2β)” value was around 65 µM.
With `O=C(OCC1CCN(CCNS(=O)(=O)c2ccccc2)CC1)c1c[nH]c2ccccc12` [Compound 4, (1-(2-(Phenylsulfonamido)ethyl)piperidin-4-yl)methyl 1H-indole-3-carboxylate], the “displacement of AMPPNP upon compound binding” value in experiment [6] was “not displaced”.
With `COc1[nH]c2ccc(F)cc2c1C(=O)OCC1CCN(CCNS(=O)(=O)c2ccccc2)CC1.Cl` [Compound 6], in experiment [7], the “CK2 activity in anti-CK2β precipitates” value is given as “significantly lower”.
